Laboratory results from patent US20220380341A1, “INHIBITORS OF HIV-1 NEF FOR THE TREATMENT OF HIV DISEASE” (priority 2018, published 2022).
Like-named read-outs stand apart in the source and are kept apart here.

Columns and labels:
HIV-1NL4-3 = assay: HIV-1 infectivity assay in TZM-bl reporter cell line (LTR-luciferase, 48 h); type: cell-based; details: Human immunodeficiency virus 1, TZM-bl
Procedure, shortened: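 Luciferase read-out 48 h post-infection; compound at 1 μM during HIV-1NL4-3 infection of TZM-bl cells. Percent inhibition scaled to DMSO wild-type virus (0%) and DMSO Nef-defective virus (100% of Nef-dependent effect). Viability checked separately in uninfected cells by Cell Titer Blue.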

TZM-bl cell line = type: cell-based; details: human, 1 μM
Procedure, shortened: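 Nef-dependent infectivity in TZM-bl cells: HIV-1NL4-3 infection with 1 μM compound, luciferase read at 48 h, normalized against DMSO wild-type and Nef-defective controls. Compound cytotoxicity in uninfected cells measured by Cell Titer Blue.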

HIV-1 NefNL4-3 = HIV-1 NefNL4-3 (Human immunodeficiency virus type 1 group M subtype B, UniProt P03406, A33V/T15A/T51N/V11I); assay: Surface plasmon resonance binding to recombinant full-length Nef (NL4-3); details: for RU30/RUNef (extent of binding): response units at 30 μM relative to Nef immobilized on the SPR chip
[1] = 1.0 μM, TZM-bl reporter cell line, Table 4, read-out: % Infectivity Inhibition
[2] = 48 h, Table 1, TZM-bl cells, 1 μM, 48 h, 100% = Nef-defective HIV-1, read-out: HIV-1 Infectivity % Inhibition Norm. to Δ-Nef @ 1 μM
[3] = KD, M, Table 4, SPR fit 1:1 Langmuir, KD = koff/kon
[4] = Table 4, 1:1 Langmuir fit, T = 1/koff
[5] = KD, M, Table 4, SPR fit 2-step induced fit, KD = koff/kon × koff2/(koff2 + kon2)
[6] = Nef NL4-3 Binding, SPR 2-state fitting KD, Table 1, 2-step induced-fit model
[7] = Table 4, 2-step induced fit, T = 1/koff2
[8] = read-out: Nef NL4-3 Binding, SPR 1:1 or 2-site fitting KD2, Table 1, 2-site fit, second component

With `Oc1c(CCc2ccc(F)cc2)c(C2CCN(Cc3cccnc3)CC2)nn1-c1nc2ccccc2[nH]1` [Compound I-803, 1-(1H-1,3-benzodiazol-2-yl)-4-[2-(4-fluorophenyl)ethyl]-3-{1-[(pyridin-3-yl)methyl]piperidin-4-yl}-1H-pyrazol-5-ol] the inhibition at 1 µM (HIV-1NL4-3; [1]) was 3.2%, the inhibition at 1 µM (HIV-1NL4-3; [2]) was 3.2% and the “% Cell Viability” value (TZM-bl cell line) was 100%. The “Percent Viability @ 1 μM (TZM-bl cells)” value (TZM-bl cell line) was 100.4%, the Kd (HIV-1 NefNL4-3) was 817 nM and the Kd (HIV-1 NefNL4-3; [3]) was 817 nM. For the same molecule, the “T, minutes (residence time)” value (HIV-1 NefNL4-3; [4]) was 1.59E + 01 minutes and the “RU30/RUNef (extent of binding)” value (HIV-1 NefNL4-3) was 1.69E- 03.

With `CS(=O)(=O)N1CCC(c2nn(-c3nc4cc(Cl)ccc4[nH]3)c(O)c2CCn2nccn2)CC1` [Compound I-707, 1-(5-chloro-1H-1,3-benzodiazol-2-yl)-3-(1-methanesulfonylpiperidin-4-yl)-4-[2-(2H-1,2,3-triazol-2-yl)ethyl]-1H-pyrazol-5-ol] the inhibition at 1 µM (HIV-1NL4-3; [1]) was 0%, the inhibition at 1 µM (HIV-1NL4-3; [2]) was -10.6% and the “% Cell Viability” value (TZM-bl cell line) was 100%. The “Percent Viability @ 1 μM (TZM-bl cells)” value (TZM-bl cell line) was 109.3%, the Kd (HIV-1 NefNL4-3) was 1980 nM and the Kd (HIV-1 NefNL4-3; [3]) was 1980 nM. For the same molecule, the “T, minutes (residence time)” value (HIV-1 NefNL4-3; [4]) was 4.33E + 00 minutes and the “RU30/RUNef (extent of binding)” value (HIV-1 NefNL4-3) was 1.81E- 03.

`Oc1c(CCc2ccc(F)cc2)c(CNCc2ccncc2)nn1-c1nc2ccccc2[nH]1` [Compound I-810, 1-(1H-1,3-benzodiazol-2-yl)-4-[2-(4-fluorophenyl)ethyl]-3-({[(pyridin-4-yl)methyl]amino}methyl)-1H-pyrazol-5-ol] was tested, and the inhibition at 1 µM (HIV-1NL4-3; [1]) was 42.8%, the inhibition at 1 µM (HIV-1NL4-3; [2]) was 42.8% and the “% Cell Viability” value (TZM-bl cell line) was 100%. The “Percent Viability @ 1 μM (TZM-bl cells)” value (TZM-bl cell line) was 101.3%, the Kd (HIV-1 NefNL4-3) was 70.7 nM and the Kd (HIV-1 NefNL4-3; [5]) was 3580 nM. For the same molecule, the Kd (HIV-1 NefNL4-3; [6]) was 3580 nM, the “T, minutes (residence time)” value (HIV-1 NefNL4-3; [7]) was 5.97E + 00 minutes and the Kd (HIV-1 NefNL4-3; [8]) was 3190 nM. For the same molecule, the “RU30/RUNef (extent of binding)” value (HIV-1 NefNL4-3) was 3.75E- 03.

For `Oc1c(CCc2ccc(F)cc2)c(C2CCN(CC3CCOCC3)CC2)nn1-c1nc2ccccc2[nH]1` [Compound I-806, 1-(1H-1,3-benzodiazol-2-yl)-4-[2-(4-fluorophenyl)ethyl]-3-{1-[(oxan-4-yl)methyl]piperidin-4-yl}-1H-pyrazol-5-ol], the inhibition at 1 µM (HIV-1NL4-3; [1]) was 20.6%, the inhibition at 1 µM (HIV-1NL4-3; [2]) was 20.6% and the “% Cell Viability” value (TZM-bl cell line) was 99.1%. For the same molecule, the “Percent Viability @ 1 μM (TZM-bl cells)” value (TZM-bl cell line) was 99.1%, the Kd (HIV-1 NefNL4-3) was 9900 nM and the Kd (HIV-1 NefNL4-3; [3]) was 9900 nM. For the same molecule, the “T, minutes (residence time)” value (HIV-1 NefNL4-3; [4]) was 1.79E + 00 minutes and the “RU30/RUNef (extent of binding)” value (HIV-1 NefNL4-3) was 7.48E- 04.

For `O=C(c1cnccn1)N1CCCC1c1nn(-c2nc3ccccc3[nH]2)c(O)c1CCc1ccc(F)cc1` (stereo not shown) [Compound I-759, 1-(1H-1,3-benzodiazol-2-yl)-4-[2-(4-fluorophenyl)ethyl]-3-[1-(pyrazine-2-carbonyl)pyrrolidin-2-yl]-1H-pyrazol-5-ol], the inhibition at 1 µM (HIV-1NL4-3; [2]) was -7.6%, the “Percent Viability @ 1 μM (TZM-bl cells)” value (TZM-bl cell line) was 98.2% and the Kd (HIV-1 NefNL4-3) was 221 nM.

In the case of `Oc1c(CC2CCOCC2)c(-c2ccccc2F)nn1-c1nc2ccccc2[nH]1` [Compound I-186, 1-(1H-1,3-benzodiazol-2-yl)-3-(2-fluorophenyl)-4-[(oxan-4-yl)methyl]-1H-pyrazol-5-ol], the inhibition at 1 µM (HIV-1NL4-3; [1]) is reported as 61.5%, the “% Cell Viability” value (TZM-bl cell line) is reported as 99.3% and the Kd (HIV-1 NefNL4-3; [5]) is reported as 11700 nM. For the same molecule, the “T, minutes (residence time)” value (HIV-1 NefNL4-3; [7]) was 7.72E + 00 minutes and the “RU30/RUNef (extent of binding)” value (HIV-1 NefNL4-3) was 1.62E- 02.

With `O=C(OCc1ccccc1)N1CCCC(c2nn(-c3nc4ccccc4[nH]3)c(O)c2CCc2ccc(F)cc2)C1` (stereo not shown) [Compound I-160, benzyl 3-[1-(1H-1,3-benzodiazol-2-yl)-4-[2-(4-fluorophenyl)ethyl]-5-hydroxy-1H-pyrazol-3-yl]piperidine-1-carboxylate] the inhibition at 1 µM (HIV-1NL4-3; [1]) was 33.4%, the inhibition at 1 µM (HIV-1NL4-3; [2]) was 33.4% and the “% Cell Viability” value (TZM-bl cell line) was 93.7%. The “Percent Viability @ 1 μM (TZM-bl cells)” value (TZM-bl cell line) was 93.7%, the Kd (HIV-1 NefNL4-3) was 0.0063 nM and the Kd (HIV-1 NefNL4-3; [5]) was 0.00238 nM. For the same molecule, the “T, minutes (residence time)” value (HIV-1 NefNL4-3; [7]) was 7.41E + 06 minutes, the Kd (HIV-1 NefNL4-3; [8]) was 2620 nM and the “RU30/RUNef (extent of binding)” value (HIV-1 NefNL4-3) was 1.74E- 02.

In the case of `CC(C)(C)OC(=O)N1CCC[C@H]1c1nn(-c2nc3ccccc3[nH]2)c(O)c1CCc1ccc(F)cc1` (stereo in doubt) [Compound I-205, tert-butyl 2-[1-(1H-1,3-benzodiazol-2-yl)-4-[2-(4-fluorophenyl)ethyl]-5-hydroxy-1H-pyrazol-3-yl]pyrrolidine-1-carboxylate], the inhibition at 1 µM (HIV-1NL4-3; [1]) is reported as 14.3%, the inhibition at 1 µM (HIV-1NL4-3; [2]) is reported as 14.3% and the “% Cell Viability” value (TZM-bl cell line) is reported as 95.6%. For the same molecule, the “Percent Viability @ 1 μM (TZM-bl cells)” value (TZM-bl cell line) was 95.6%, the Kd (HIV-1 NefNL4-3) was 1090 nM and the Kd (HIV-1 NefNL4-3; [5]) was 208 nM. For the same molecule, the Kd (HIV-1 NefNL4-3; Nef NL4-3 Binding, SPR 1:1 or 2-site fitting KD2, Table 1, 2-site fit, second component) was 1100 nM, the Kd (HIV-1 NefNL4-3; [6]) was 208 nM and the “T, minutes (residence time)” value (HIV-1 NefNL4-3; [7]) was 9.98E + 01 minutes. For the same molecule, the “RU30/RUNef (extent of binding)” value (HIV-1 NefNL4-3) was 5.81E- 03.
